Assay [1] is described as follows: cells.
A short description of assay [2]: viability of uninfected HEp-2 cells – cell-based, HTS, cytotoxicity control for RSV inhibitor project, dose response (AID 2410). The format is functional. To be noted: human respiratory syncytial virus.
The subject of assay [3] is Vero. Put plainly: cells. The format is functional, cell-based. To be noted: Chlorocebus sabaeus.
The target of assay [4] is Prothrombin (Homo sapiens, UniProt P00734). Kind of assay: Thrombin 1536 HTS Dose Response Confirmation. [Related pubchem assays: 1046 (Thrombin 1536 HTS; hits were confirmed in this assay)]. It is filed as functional.
Assay [5] has as its target Ion channel NompC (Danio rerio, UniProt Q7T1G6). Kind of assay: Fluorescence counterscreen assay for TRPML3 agonists: dose response cell-based high-throughput screening assay to identify agonists of the transient receptor potential channel N1 (TRPN1). [Related pubchem assays: 1526, 1424, 1448 ]. The format is functional. Background: Counterscreens check selectivity or assay interference.

Assay [6] has as its target T1, Mucolipin-3 (Homo sapiens, UniProt Q8TDD5).
T1 sequence (Q8TDD5 whole entry): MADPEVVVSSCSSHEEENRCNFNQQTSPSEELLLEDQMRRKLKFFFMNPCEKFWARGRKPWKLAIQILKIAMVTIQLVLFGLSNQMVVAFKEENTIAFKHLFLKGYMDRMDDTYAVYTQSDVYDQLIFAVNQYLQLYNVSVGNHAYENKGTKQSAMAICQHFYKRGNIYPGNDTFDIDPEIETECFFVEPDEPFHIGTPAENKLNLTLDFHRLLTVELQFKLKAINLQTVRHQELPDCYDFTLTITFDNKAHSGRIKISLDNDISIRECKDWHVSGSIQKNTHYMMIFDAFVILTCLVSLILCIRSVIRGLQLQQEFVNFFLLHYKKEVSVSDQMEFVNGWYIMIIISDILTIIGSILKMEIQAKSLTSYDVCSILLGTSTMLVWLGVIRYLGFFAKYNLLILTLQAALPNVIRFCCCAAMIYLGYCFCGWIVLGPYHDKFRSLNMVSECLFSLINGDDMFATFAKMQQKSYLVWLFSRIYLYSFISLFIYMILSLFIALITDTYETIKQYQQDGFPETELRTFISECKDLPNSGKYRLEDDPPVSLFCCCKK
Put plainly: Dose response cell-based high-throughput screening assay for agonists of the transient receptor potential channel ML3 (TRPML3). [Related pubchem assays: 1526, 1424, 1448 ]. It is filed as functional.

Assay [7] is described as follows: viability inhibitors of stage V gametocytes – luminescence, dose response (AID 1117278).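 Note: gametocytes exposed to compound for 24 hours.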 It is filed as functional, cell-based.
Assay [8] in a line: viability loss in human Jurkat cells – cell-based, luminescence, cytotoxicity control for P. falciparum gametocyte viability project, dose response (AID 1117277).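 Note: potency reflects loss of cellular ATP meaning fewer viable cells.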 It is filed as functional.
A short description of assay [9]: HPDE-C7 pancreatic duct cell viability loss – fluorescence, HTS (AID 430). It is filed as functional, cell-based. To be noted: Homo sapiens.
Assay [10] can be described thus: viability loss of HPDE-C7K cells – cell-based, fluorescence, HTS, primary screen (AID 431). The conditions noted are these: Homo sapiens. The format is functional.
The nature of assay [11]: A cytotoxicity screen of small molecule inhibitors of the PhoP region in Salmonella typhi identified in the primary screen. [Related pubchem assays: 1850, 1864, 1985 ]. It is filed as functional.
The target in assay [12] is T2, NADPH oxidase 1 (Homo sapiens, UniProt Q9Y5S8).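 Note: Cell-based assay with luminescence read-out, IC50 derived from inhibitor dose-response curves; intracellular ROS from endogenous NOX1 in intact HT29 colon cancer cells; potency of inhibitors that lower the ROS luminescence signal.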
T2 sequence (Q9Y5S8 whole entry): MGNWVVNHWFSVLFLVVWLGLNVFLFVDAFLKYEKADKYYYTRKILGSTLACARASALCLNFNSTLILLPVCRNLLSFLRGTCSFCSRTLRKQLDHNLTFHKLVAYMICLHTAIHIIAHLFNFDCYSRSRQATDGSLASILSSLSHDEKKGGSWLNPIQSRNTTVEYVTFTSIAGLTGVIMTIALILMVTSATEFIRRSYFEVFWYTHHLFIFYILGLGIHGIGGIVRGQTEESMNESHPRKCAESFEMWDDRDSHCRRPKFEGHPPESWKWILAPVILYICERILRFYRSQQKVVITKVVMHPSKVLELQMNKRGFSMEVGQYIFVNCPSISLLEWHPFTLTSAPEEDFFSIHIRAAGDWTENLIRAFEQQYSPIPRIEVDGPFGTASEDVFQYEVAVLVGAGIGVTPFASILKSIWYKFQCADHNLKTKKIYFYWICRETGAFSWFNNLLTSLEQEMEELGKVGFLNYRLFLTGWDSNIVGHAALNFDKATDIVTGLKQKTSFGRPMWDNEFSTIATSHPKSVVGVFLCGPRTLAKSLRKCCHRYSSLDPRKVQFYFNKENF
The format is functional, cell-based.

The target of assay [13] is T3, Genome polyprotein (Hepatitis C virus, UniProt Q2Q167).
T3 sequence (Q2Q167 whole entry): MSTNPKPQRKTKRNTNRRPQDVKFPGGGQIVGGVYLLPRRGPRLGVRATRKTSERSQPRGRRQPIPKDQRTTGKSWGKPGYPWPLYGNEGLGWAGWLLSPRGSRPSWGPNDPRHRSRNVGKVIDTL
Kind of assay: disruption of hepatitis C core self-association – biochemical, TR-FRET, dose response (AID 2159).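 Note: blocks dimerization of HCV core protein measured by TR-FRET between tagged core106 pairs.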 Details: species or system Hepacivirus hominis.

A short description of assay [14]: NIH3T3 cell viability loss – ATP luminescence, mouse fibroblasts, counter-screen, dose response (AID 2010).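 Note: cells exposed to compound for about 90 hours before reading.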 It is filed as functional, cell-based.
A short description of assay [15]: Trypanosoma cruzi growth suppression in host cells – NIH3T3 host cells, beta-gal luminescence, confirmation (AID 2044).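 Note: intracellular parasites grown in NIH/3T3 mouse fibroblasts as host cells; luminescent beta-galactosidase reporter signal from transgenic T. cruzi replicating inside host cells; inhibitors lower the luminescence signal.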 The format is functional, cell-based.
Assay [16] is described as follows: RKO cell viability reduction, dose response, CellTiter-Glo luminescence (AID 1117322). It is filed as functional. (In general: Cellular ATP, detected with luciferase, serves as a proxy for viable cell number.)
The nature of assay [17]: rise of 2N DNA cells, HeLa – IC50, dose response (AID 1117349). The format is functional, cell-based.
Assay [18] concerns INS1. Kind of assay: INS-1E survival protection against cytokine death – cell-based, luminescence, retest, dose response (AID 449756).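 Note: cell death triggered by IL-1 beta plus TNF-alpha plus IFN-gamma mixture; protective hits raise ATP signal compared with cytokine alone wells.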 It is filed as functional. The conditions noted are these: Rattus norvegicus.
The nature of assay [19]: cytotoxicity toward HCT116 cells – cell-based, CellTiter-Glo luminescence, IC50, dose response (AID 1117332). The conditions noted are these: HCT-116. It is filed as functional.
The nature of assay [20]: cytotoxicity toward Colo320 cells – cell-based, CellTiter-Glo luminescence, IC50, dose response (AID 1117334). The format is functional. To be noted: COLO 320.
Assay [21] in a line: SNU-C1 cell viability reduction, dose response, CellTiter-Glo luminescence (AID 1117323). It is filed as functional, cell-based.
Assay [22] can be described thus: Reduced DLD-1 viability, concentration-response, CellTiter-Glo luminescence (AID 1117352). The format is functional.
In assay [23] the target is Heat shock protein HSP 90-alpha (Homo sapiens, UniProt P07900). It is filed as functional, organism-based.
Assay [24] in a line: CellTiter-Glo luminescence survival assay, SW480 colon tumor line, concentration-response curve, half-maximal inhibitory concentration (AID 1117338). The format is functional.
In assay [25] the target is T4, Cytochrome P450 1A2 (Homo sapiens, UniProt P05177).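 Note: PubChem cytochrome P450 panel assay, CYP1A2 panel member.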
T4 sequence (P05177 whole entry): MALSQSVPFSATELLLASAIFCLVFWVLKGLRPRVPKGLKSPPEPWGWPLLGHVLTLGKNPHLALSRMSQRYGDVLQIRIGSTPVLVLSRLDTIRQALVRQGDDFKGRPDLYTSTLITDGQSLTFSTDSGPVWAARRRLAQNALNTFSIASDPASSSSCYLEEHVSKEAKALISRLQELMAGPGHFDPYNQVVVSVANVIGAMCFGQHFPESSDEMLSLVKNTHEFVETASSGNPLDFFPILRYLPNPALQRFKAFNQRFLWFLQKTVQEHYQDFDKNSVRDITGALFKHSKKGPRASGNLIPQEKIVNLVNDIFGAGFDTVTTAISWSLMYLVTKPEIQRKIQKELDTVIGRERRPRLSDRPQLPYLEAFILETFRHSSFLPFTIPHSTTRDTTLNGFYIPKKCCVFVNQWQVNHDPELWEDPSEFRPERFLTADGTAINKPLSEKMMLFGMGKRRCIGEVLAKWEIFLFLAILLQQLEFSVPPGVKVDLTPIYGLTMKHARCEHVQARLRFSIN

Assay [26] can be described thus: rise of 4N DNA cells, HeLa – IC50, dose response (AID 1117351). It is filed as functional, cell-based.
The nature of assay [27]: HCT116 cell viability decrease, GSK3B pretreatment – CellTiter-Glo, IC50, dose response (AID 1117339). The format is functional. To be noted: HCT-116.

The text below walks through data of ChEMBL document CHEMBL1201862, “PubChem BioAssay data set” (2004).

Activity calls are given as the source filed them.

Ion channel NompC, sequence (Q7T1G6 whole entry): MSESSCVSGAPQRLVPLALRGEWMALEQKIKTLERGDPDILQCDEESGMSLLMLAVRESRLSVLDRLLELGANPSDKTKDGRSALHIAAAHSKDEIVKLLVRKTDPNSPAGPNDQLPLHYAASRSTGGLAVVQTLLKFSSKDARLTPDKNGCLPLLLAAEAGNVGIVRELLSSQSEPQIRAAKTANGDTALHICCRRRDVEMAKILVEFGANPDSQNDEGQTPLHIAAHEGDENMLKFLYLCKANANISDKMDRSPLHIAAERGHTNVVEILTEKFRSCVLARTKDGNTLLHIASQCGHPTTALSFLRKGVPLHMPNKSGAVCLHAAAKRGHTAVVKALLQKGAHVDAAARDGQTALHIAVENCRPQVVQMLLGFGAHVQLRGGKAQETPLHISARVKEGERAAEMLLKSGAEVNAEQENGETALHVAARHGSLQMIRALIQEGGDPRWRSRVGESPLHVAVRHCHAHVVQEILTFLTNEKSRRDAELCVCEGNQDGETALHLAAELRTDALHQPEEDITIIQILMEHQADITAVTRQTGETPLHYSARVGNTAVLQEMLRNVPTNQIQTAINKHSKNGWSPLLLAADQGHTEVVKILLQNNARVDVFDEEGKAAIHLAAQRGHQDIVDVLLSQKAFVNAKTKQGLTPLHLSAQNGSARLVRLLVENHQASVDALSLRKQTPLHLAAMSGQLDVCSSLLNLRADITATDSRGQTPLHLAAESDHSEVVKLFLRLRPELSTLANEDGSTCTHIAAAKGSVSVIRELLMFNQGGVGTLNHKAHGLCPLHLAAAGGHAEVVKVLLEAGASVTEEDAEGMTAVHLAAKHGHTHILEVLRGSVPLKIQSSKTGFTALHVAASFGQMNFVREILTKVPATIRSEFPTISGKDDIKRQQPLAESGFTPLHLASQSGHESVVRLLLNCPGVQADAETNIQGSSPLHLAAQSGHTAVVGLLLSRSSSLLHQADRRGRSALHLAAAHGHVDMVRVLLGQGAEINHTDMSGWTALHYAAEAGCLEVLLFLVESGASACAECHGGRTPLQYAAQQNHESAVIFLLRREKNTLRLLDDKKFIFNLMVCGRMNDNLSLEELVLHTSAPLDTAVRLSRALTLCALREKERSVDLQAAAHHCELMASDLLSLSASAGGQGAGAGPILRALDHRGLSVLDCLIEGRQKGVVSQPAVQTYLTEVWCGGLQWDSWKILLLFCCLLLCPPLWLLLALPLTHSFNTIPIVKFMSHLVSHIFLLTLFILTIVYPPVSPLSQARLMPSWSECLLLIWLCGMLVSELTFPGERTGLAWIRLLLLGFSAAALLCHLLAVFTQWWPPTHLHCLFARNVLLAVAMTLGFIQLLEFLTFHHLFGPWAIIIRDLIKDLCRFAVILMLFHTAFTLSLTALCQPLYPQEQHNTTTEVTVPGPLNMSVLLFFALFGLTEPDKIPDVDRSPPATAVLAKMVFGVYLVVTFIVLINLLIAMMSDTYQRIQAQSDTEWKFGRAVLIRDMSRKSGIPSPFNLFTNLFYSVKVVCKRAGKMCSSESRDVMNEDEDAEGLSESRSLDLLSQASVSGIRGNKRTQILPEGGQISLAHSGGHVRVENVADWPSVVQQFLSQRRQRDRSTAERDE

As usually defined, the IC50 is the concentration at which inhibition is half-maximal. The CC50 is the concentration that lowers cell viability or growth by half. On to `O=C(NC(Cc1c[nH]c2ccccc12)C(=O)Nc1ccc(F)cc1)c1cccs1` (configuration not stated), for which the IC50 is 12.8 µM (active) in assay [1] and 8.41 µM (active) in [3]. Further, the CC50 in [2] is 15.6 µM (active).
In the case of `Cc1ccc2c(c1)CC1(CN2C)C(=O)OC(C)(C)OC1=O`, the IC50 in assay [4] is 1.69 µM (active).
Same read-out and setting: in the case of `O=C(CC(Nc1ccc(F)cc1)C(=O)OCC(=O)c1cccs1)c1ccccc1` (configuration not stated) it was 2.82 µM (active).
By EC50 is commonly meant the concentration that produces a half-maximal response. For the compound `COc1ccc(S(=O)(=O)N(CC(=O)N2CCOCC2)c2cc(Cl)ccc2OC)cc1OC`, the values for the EC50 in assay [5] and in assay [6] were > 29.9 µM (not active) and 4.75 µM (active), respectively.
The matching figures for `Cc1ccccc1N1CCN(S(=O)(=O)c2ccccc2)CC1`: > 29.9 µM (not active) and 5.11 µM (active).
For `O=C(c1ccco1)N1CCN(C(=O)C2c3ccccc3Oc3ccccc32)CC1`, the figures for the IC50 in [7] and in [8] were > 109 µM (inactive) and 64.4 µM (inactive), respectively.
As to `CCCCOc1cccc(C(=O)Nc2ccc(N3CCN(CC)CC3)cc2)c1`, the EC50 in assay [9] and in [10] was > 20 µM (not active) each time.
Take `Cc1cc(C)c(C2=NOC3C4CCC(C4)C23)c(C)c1` (configuration not stated): the EC50 in assay [5] was > 29.9 µM (not active); in [6], 1.77 µM (active).
As for `CN(C1CCS(=O)(=O)C1)S(=O)(=O)c1ccccc1` (configuration not stated), the IC50 in assay [7] is > 109 µM (inactive); in assay [8], > 83.3 µM (inactive).
Take `CC(C)(C)c1ccc(C(=O)NNC(=O)Cc2ccccc2)cc1`: the EC50 in assay [11] is > 50 µM (active).
For `O=C(Oc1ccc(Cl)cc1)c1sc2ccccc2c1Cl`, the IC50 in assay [12] is on record as > 17 µM (not active).
`COc1cccc(NC(=O)CN(C)C(=O)c2cc3c(s2)CCC3)c1`: the IC50 in assay [13] is > 49.8 µM (not active).
Still for that read-out and setting: then `O=C(/C=C/c1ccc(Br)o1)OCc1nc(O)c2sccc2n1`, with 18.2 µM (not active).
On to `Cn1c2ccccc2c(=O)c2c(=O)n(Cc3ccco3)c(COc3ccccc3)nc21`, for which the EC50 in assay [14] is > 60 µM (not active); in assay [15], 0.123 µM (active). The IC50 in assay [1] was 21.2 µM (active). Further, the CC50 in assay [2] was 32.8 µM (active).
Regarding `CC(=O)Nc1ccc(-c2nc(-c3ccccc3)c(-c3ccccc3)[nH]2)cc1`, the IC50 in assay [12] is on record as > 17 µM (not active).
Still for that read-out and setting: then `COc1ccc(-c2nc(-c3ccc(OC)cc3)c(-c3ccc(OC)cc3)[nH]2)cc1`, with > 17 µM (not active).
Turning to `O=C(CSc1nc2ncnc-2c(O)[nH]1)NC1CCCCC1`, in assay [4], the IC50 is > 50 µM (not active).
`Cc1ccc(CN2CCN(Cc3ccc(-n4cccn4)cc3)CC2CCO)cc1` (configuration not stated): the IC50 in [7] is > 109 µM (inactive); in assay [8] it was > 83.4 µM (inactive).
One may read the AC50 as the concentration giving half of the maximal activity seen. For `Cc1cc(C2CCCCC2)n(O)c(=O)c1` [CICLOPIROX OLAMINE], the IC50 in assay [16] is 0.233 µM (active); in [17] it was > 10 µM (inactive); in [19], 0.656 µM (active); in assay [20], 0.208 µM (active); in [21] it was > 20 µM (inactive); in [22], 0.316 µM (active). Moreover, the IC50 in [24] was 0.469 µM (active); in [26], > 10 µM (inactive); in [27], 0.39 µM (active). Besides, the values for the AC50 in assay [18], in assay [23] and in [25] were 0.78 µM (active), < 0.195 µM (active) and 15.8 µM (inconclusive), respectively.
